Assay results published in patent US20240108623A1, “METHODS OF TREATING CANCER WITH POZIOTINIB” (BOARD OF REGENTS, THE UNIVERSITY OF TEXAS SYSTEM, priority 2021, published 2024).

Legend:
Assay in all cases: Ba/F3 cell drug screening, Cell Titer Glo
Assay type in all cases: cell-based
EGFR D761N = target: T1, EGFR D761N (Homo sapiens, UniProt P00533, D761N); details: Ba/F3 cells expressing EGFR D761N; 72 hours
T1 construct: expressed in transfected cells; host or cells: Ba/F3 (retroviral, pBabe-Puro based vector)
Description: (§1) Ba/F3 cell generation, drug screening, and IC50 approximations. Ba/F3 cells were obtained as a gift from Dr. Gordon Mills (MD Anderson Cancer Center), and maintained in RPMI (Sigma) containing 10% FBS, 1% penicillin/streptomycin, and 10 ng/ml recombinant mIL-3 (R&D Biosystems). To establish stable Ba/F3 cell lines, Ba/F3 cells were transduced with retroviruses containing mutant EGFR plasmids for 12-24 hours. Retroviruses were generated using Lipofectamine 2000 (Invitrogen) transfections of Phoenix 293T-ampho cells (Orbigen) with pBabe-Puro based vectors listed below in Table 6. Vectors were generated by GeneScript or Bioinnovatise using parental vectors from Addgene listed below in Table 6.
(§2) After 48-72 hours of transduction, 2 μg/ml puromycin (Invitrogen) was added to Ba/F3 cell lines in complete RPMI. To select for EGFR positive cell lines, cells were stained with PE-EGFR (Biolegend) and sorted by FACS. After sorting, EGFR positive cells were maintained in RPMI containing 10% FBS, 1% penicillin/streptomycin, and 1 ng/ml EGF to support cell viability. Drug screening was performed as previously described^41,42. Shortly, cells were plated in 384-well plates (Greiner Bio-One) at 2000-3000 cells per well in technical triplicate. Seven different concentrations of TKIs or DMSO vehicle were added to reach a final volume of 40 μL per well. After 72 hours, 11p L of Cell Titer Glo (Promega) was added to each well. Plates were incubated for a minimum of 10 minutes, and bioluminescence was determined using a FLUOstar OPTIMA plate reader (BMG LABTECH). Raw bioluminescence values were normalized to DMSO control treated cells, and values were plotted in GraphPad Prism. Non-linear regressions were used to fit the normalized data with a variable slope, and IC50 values were determined by GraphPad prism by interpolation of concentrations at 50% inhibition. Drug screens were performed in technical triplicate on each plate and either duplicate or triplicate biological replicates. Mutant to WT ratios (Mut/WT) for each drug were calculated by dividing the IC50 values of mutant cell lines by the average IC50 value of Ba/F3 cells expressing WT EGFR supplemented with 10 ng/ml EGF for each drug. Statistical differences between groups were determined by ANOVA as described in the figure legends.

EGFR E709A = target: T2, EGFR E709A (Homo sapiens, UniProt P00533, E709A); details: Ba/F3 cells expressing EGFR E709A; 72 hours
T2 construct: expressed in transfected cells; host or cells: Ba/F3 (retroviral transduction, pBabe-Puro based vectors)
Description: as §1, §2

EGFR E709A G719S = target: T3, EGFR E709A G719S (Homo sapiens, UniProt P00533, E709A/G719S); details: Ba/F3 cells expressing EGFR E709A G719S; 72 hours
T3 construct: expressed in transfected cells; host or cells: Ba/F3 (retroviral transduction, pBabe-Puro based vectors)
Description: as §1, §2

EGFR Ex19del G724S = target: T4, EGFR Ex19del G724S (Homo sapiens, UniProt P00533, DEL746-750/G724S); details: Ba/F3 cells expressing EGFR Ex19del G724S; 72 hours
T4 construct: expressed in transfected cells; host or cells: Ba/F3 (retroviral transduction, pBabe-Puro based vectors)
Description: as §1, §2

EGFR Ex19del/L792H = target: T5, EGFR Ex19del/L792H (Homo sapiens, UniProt P00533, DEL746-750/L792H); details: Ba/F3 cells expressing EGFR Ex19del/L792H; 72 hours
T5 construct: expressed in transfected cells; host or cells: Ba/F3 (retroviral transduction, pBabe-Puro based vectors)
Description: as §1, §2

EGFR G719A/R776C = target: T6, EGFR G719A/R776C (Homo sapiens, UniProt P00533, G719A/R776C); details: Ba/F3 cells expressing EGFR G719A/R776C; 72 hours
T6 construct: expressed in transfected cells; host or cells: Ba/F3 (retroviral transduction, pBabe-Puro based vectors)
Description: as §1, §2

EGFR G719S T790M = target: T7, EGFR G719S T790M (Homo sapiens, UniProt P00533, G719S/T790M); details: Ba/F3 cells expressing EGFR G719S T790M; 72 hours
T7 construct: expressed in transfected cells; host or cells: Ba/F3 (retroviral transduction, pBabe-Puro based vectors)
Description: as §1, §2

EGFR L747P = target: T8, EGFR L747P (Homo sapiens, UniProt P00533, L747P); details: Ba/F3 cells expressing EGFR L747P; 72 hours
T8 construct: expressed in transfected cells; host or cells: Ba/F3 (retroviral transduction, pBabe-Puro based vectors)
Description: as §1, §2

EGFR L858R T790M L718V = target: T9, EGFR L858R T790M L718V (Homo sapiens, UniProt P00533, L718V/L858R/T790M); details: Ba/F3 cells expressing EGFR L858R T790M L718V; 72 hours
T9 construct: expressed in transfected cells; host or cells: Ba/F3 (retroviral transduction, pBabe-Puro based vectors)
Description: as §1, §2

EGFR L858R T790M L792H = target: T10, EGFR L858R T790M L792H (Homo sapiens, UniProt P00533, L792H/L858R/T790M); details: Ba/F3 cells expressing EGFR L858R T790M L792H; 72 hours
T10 construct: expressed in transfected cells; host or cells: Ba/F3 (retroviral transduction, pBabe-Puro based vectors)
Description: as §1, §2

EGFR L858R/T790M/C797S = target: T11, EGFR L858R/T790M/C797S (Homo sapiens, UniProt P00533, C797S/L858R/T790M); details: Ba/F3 cells expressing EGFR L858R/T790M/C797S; 72 hours
T11 construct: expressed in transfected cells; host or cells: Ba/F3 (retroviral transduction, pBabe-Puro based vectors)
Description: as §1, §2

EGFR L858R/T790M/L718Q = target: T12, EGFR L858R/T790M/L718Q (Homo sapiens, UniProt P00533, L718Q/L858R/T790M); details: Ba/F3 cells expressing EGFR L858R/T790M/L718Q; 72 hours
T12 construct: expressed in transfected cells; host or cells: Ba/F3 (retroviral transduction, pBabe-Puro based vectors)
Description: as §1, §2

EGFR L861R = target: T13, EGFR L861R (Homo sapiens, UniProt P00533, L861R); details: Ba/F3 cells expressing EGFR L861R; 72 hours
T13 construct: expressed in transfected cells; host or cells: Ba/F3 (retroviral, pBabe-Puro based vector; created by GeneScript from EGFR WT)
Description: as §1, §2

EGFR R776H = target: T14, EGFR R776H (Homo sapiens, UniProt P00533, R776H); details: Ba/F3 cells expressing EGFR R776H; 72 hours
T14 construct: host or cells: Ba/F3 (retroviral transduction, pBabe-Puro based vectors)
Description: as §1, §2

EGFR S768I/T790M = target: T15, EGFR S768I/T790M (Homo sapiens, UniProt P00533, S768I/T790M); details: Ba/F3 cells expressing EGFR S768I/T790M; 72 hours
T15 construct: expressed in transfected cells; host or cells: Ba/F3 (retroviral transduction, pBabe-Puro based vectors)
Description: as §1, §2

EGFR T725M = target: T16, EGFR T725M (Homo sapiens, UniProt P00533, T725M); details: Ba/F3 cells expressing EGFR T725M; 72 hours
T16 construct: expressed in transfected cells; host or cells: Ba/F3 (retroviral, pBabe-Puro based vector; created by GeneScript from EGFR WT)
Description: as §1, §2

C=CC(=O)N1CCC(Oc2cc3c(Nc4ccc(Cl)c(Cl)c4F)ncnc3cc2OC)CC1 [Poziotinib]
Response of Cells Comprising Classical-Like EGFR Mutations to Second-Generation TKIs (EGFR D761N): 0.007859
Response of Cells Comprising PACC EGFR Mutations to Second-Generation TKIs (EGFR E709A): 0.02334
Response of Cells Comprising PACC EGFR Mutations to Second-Generation TKIs (EGFR E709A G719S): 0.01612
Response of Cells Comprising PACC EGFR Mutations to Second-Generation TKIs (EGFR Ex19del G724S): 0.4952
Response of Cells Comprising PACC EGFR Mutations to Second-Generation TKIs (EGFR Ex19del/L792H): 0.3177
Response of Cells Comprising PACC EGFR Mutations to Second-Generation TKIs (EGFR G719A/R776C): 0.01624
Response of Cells Comprising T790M-like-S EGFR Mutations to Second-Generation TKIs (EGFR G719S T790M): 0.3262
Response of Cells Comprising PACC EGFR Mutations to Second-Generation TKIs (EGFR L747P): 0.1338
Response of Cells Comprising T790M-like-R EGFR Mutations to Second-Generation TKIs (EGFR L858R T790M L718V): 33.63
Response of Cells Comprising T790M-like-S EGFR Mutations to Second-Generation TKIs (EGFR L858R T790M L792H): 56.36
Response of Cells Comprising T790M-like-R EGFR Mutations to Second-Generation TKIs (EGFR L858R/T790M/C797S): 935.3
Response of Cells Comprising T790M-like-R EGFR Mutations to Second-Generation TKIs (EGFR L858R/T790M/L718Q): 70.12
Response of Cells Comprising Classical-Like EGFR Mutations to Second-Generation TKIs (EGFR L861R): 0.01648
Response of Cells Comprising PACC EGFR Mutations to Second-Generation TKIs (EGFR R776H): 0.01644
Response of Cells Comprising T790M-like-S EGFR Mutations to Second-Generation TKIs (EGFR S768I/T790M): 2.935
Response of Cells Comprising Classical-Like EGFR Mutations to Second-Generation TKIs (EGFR T725M): 0.003297
